The conditions of data set [1]: in vivo; cited from earlier work.
In the next data set the test system is animal models. Conditions: cited from earlier work.
The test system of data set [2] is Alzheimer's disease patients. Conditions: cited from earlier work.
The target in another data set is T1, mAChR M4 (UniProt P08173).
T1 construct: hM1 and hM4 cDNAs were purchased from Missouri S&T cDNA Resource
T1 sequence (P08173 1-479): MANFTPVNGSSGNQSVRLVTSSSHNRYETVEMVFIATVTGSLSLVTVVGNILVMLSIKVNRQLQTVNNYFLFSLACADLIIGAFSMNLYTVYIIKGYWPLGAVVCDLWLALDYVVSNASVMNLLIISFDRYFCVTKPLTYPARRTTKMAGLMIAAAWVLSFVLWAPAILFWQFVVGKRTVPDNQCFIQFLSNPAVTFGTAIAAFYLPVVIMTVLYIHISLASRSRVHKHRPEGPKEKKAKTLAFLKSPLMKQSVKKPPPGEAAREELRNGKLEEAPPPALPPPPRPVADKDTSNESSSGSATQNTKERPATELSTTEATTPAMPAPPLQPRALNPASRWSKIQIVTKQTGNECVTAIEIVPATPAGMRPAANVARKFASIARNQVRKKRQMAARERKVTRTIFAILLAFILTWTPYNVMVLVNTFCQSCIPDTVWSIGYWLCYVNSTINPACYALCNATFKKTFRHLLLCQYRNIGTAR
The experiment in a line: mAChR M4 cell-based functional assay (calcium mobilization, Fluo-4, FDSS). Conditions: for Emax (%)*: % ACh maximum at 30 μM; for pEC50: positive allosteric modulator activity, EC20 acetylcholine response; for pEC50 / EC50: CHO-K1 cells; for EC50: positive allosteric modulator activity: concentration-dependent increase in the EC20 acetylcholine response, >10 μM estimated for low potency (no plateau). The method, boiled down: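 Compound responses (11-point, 1:3 series) were followed as calcium fluorescence ratio on FDSS in Gqi5-coupled M4 CHO-K1 cells (human or rat) loaded with Fluo-4. Acetylcholine followed at EC20 (144 s) then EC80 (230 s). EC50/Emax from four-parameter logistic fits of direct, EC20-potentiating or EC80-inhibiting effects.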

On to `Nc1c2c(nc3ccccc13)CCCC2` [tacrine], for which the “elevated liver transaminases, share of patients” value in data set [1] is listed as “about 30%”.
As for `CCCCCCOc1nsnc1C1=CCCN(C)C1` [xanomeline], the catalepsy entry with animal models (in vivo) was “without causing catalepsy”. Also, the “activity in animal models” value in the data set with animal models (profiles similar to known antipsychotic drugs) is listed as “active in animal models”. Further, the “psychotic behavioral symptoms (delusions, suspiciousness, vocal outbursts, hallucinations)” value in data set [2] is given as “reduce psychotic behavioral symptoms”.
For `Cc1cc(C)c2c(n1)sc1c(NCC3CCNCC3)nn(C)c12` [Compound 123, 1,6,8-trimethyl-N-(piperidin-4-ylmethyl)-1H-pyrazolo[3′,4′:4,5]thieno[2,3-b]pyridin-3-amine], on mAChR M4, the “Emax (%)*” value worked out at 30%; the pEC50 (as a rule, the EC50 on a negative log10 scale, so that one unit is a factor of ten) was below 5.00; the concentration for a half-maximal effect (EC50) (as a rule, the concentration needed to bring the measured effect to its halfway point) was above 10000 nM.
With `COc1ccc(CNc2n[nH]c3c2sc2nc(C)c(Cl)c(C)c23)cc1` [Compound 143, 7-chloro-N-(4-methoxybenzyl)-6,8-dimethyl-1H-pyrazolo[3′,4′:4,5]thieno[2,3-b]pyridin-3-amine], at mAChR M4, the pEC50 is recorded as below 5.00 and the EC50 is above 10000 nM.
`Cc1ccc2c(n1)sc1c(NCc3ccccc3)nn(C)c12` [Compound 53, N-benzyl-1,6-dimethyl-1H-pyrazolo[3′,4′:4,5]thieno[2,3-b]pyridin-3-amine]: at mAChR M4, the “Emax (%)*” value is recorded as 70%, the pEC50 amounted to 6.08 and the EC50 is 840 nM.
On to `Cc1nc2sc3c(NCc4ccc(F)cc4)n[nH]c3c2c(C)c1Cl` [Compound 145, 7-chloro-N-(4-fluorobenzyl)-6,8-dimethyl-1H-pyrazolo[3′,4′:4,5]thieno[2,3-b]pyridin-3-amine], for which, on mAChR M4, the negative logarithm of the EC50 (pEC50) was below 5.00 and the EC50 was above 10000 nM.
Regarding `COCCn1nc(NCc2ccc(S(C)(=O)=O)cc2)c2sc3nc(C)cc(C)c3c21` [Compound 119, 1-(2-methoxyethyl)-6,8-dimethyl-N-(4-(methylsulfonyl)benzyl)-1H-pyrazolo[3′,4′:4,5]thieno[2,3-b]pyridin-3-amine], at mAChR M4, the “Emax (%)*” value turned out to be 65%, the negative-log EC50 (pEC50) worked out at 5.92 and the EC50 was 1200 nM.
For `Cc1cc(C)c2c(n1)sc1c(NCc3ccc(Cl)o3)nn(C)c12` [Compound 79, N-((5-chlorofuran-2-yl)methyl)-1,6,8-trimethyl-1H-pyrazolo[3′,4′:4,5]thieno[2,3-b]pyridin-3-amine], in that order: 80%, 6.51 and 310 nM.
As to `CCCCC(=O)Nc1n[nH]c2c1sc1nc(C)cc(C)c12` [Compound 129, N-(6,8-dimethyl-1H-pyrazolo[3′,4′:4,5]thieno[2,3-b]pyridin-3-yl)pentanamide], on mAChR M4, the pEC50 was below 5.00 and the EC50 was above 10000 nM.
For `Cc1ccc2c(n1)sc1c(NCC3CC3)n[nH]c12` [Compound 43, N-(cyclopropylmethyl)-6-methyl-1H-pyrazolo[3′,4′:4,5]thieno[2,3-b]pyridin-3-amine], on mAChR M4, the “Emax (%)*” value was 64%, the pEC50 came to 5.35 and the EC50 was 4500 nM.
For `Cc1cc(C)c2c(n1)sc1c(NCc3cc4ccccc4n3C)nn(C)c12` [Compound 89, 1,6,8-trimethyl-N-((1-methyl-1H-indo1-2-yl)methyl)-1H-pyrazolo[3′,4′:4,5]thieno[2,3-b]pyridin-3-amine], on mAChR M4, the “Emax (%)*” value was determined as 51%, the pEC50 is recorded as below 5.00 and the EC50 is above 10000 nM.
Take `Cc1cc(C)c2c(n1)sc1c(NC3CCCC3)nn(C)c12` [Compound 64, N-cyclopentyl-1,6,8-trimethyl-1H-pyrazolo[3′,4′:4,5]thieno[2,3-b]pyridin-3-amine]: on mAChR M4, the “Emax (%)*” value is given as 83%, the pEC50 is recorded as 6.85 and the EC50 is 140 nM.
Consider `Cc1cc(C)c2c(n1)sc1c(NC(=O)c3ccc(F)cc3)n[nH]c12` [Compound 128, N-(6,8-dimethyl-1H-pyrazolo[3′,4′:4,5]thieno[2,3-b]pyridin-3-yl)-4-fluorobenzamide], for which, on mAChR M4, the pEC50 is on record as below 5.00 and the EC50 was above 10000 nM.
As to `Cc1cc(C)c2c(n1)sc1c(NCC3CC3)n[nH]c12` [Compound 7, N-(cyclopropylmethyl)-6,8-dimethyl-1H-pyrazolo[3′,4′:4,5]thieno[2,3-b]pyridin-3-amine], on mAChR M4, the “Emax (%)*” value was determined as 68%, the pEC50 was 5.90 and the EC50 is 1260 nM.
Take `Cc1cc(C)c2c(n1)sc1c(NCCC(C)(C)C)n[nH]c12` [Compound 124, N-(3,3-dimethylbutyl)-6,8-dimethyl-1H-pyrazolo[3′,4′:4,5]thieno[2,3-b]pyridin-3-amine]: at mAChR M4, the pEC50 is reported as below 5.00 and the EC50 was above 10000 nM.
For `Cc1cc(C)c2c(n1)sc1c(NCc3nccn3C)nn(C)c12` [Compound 163, 1,6,8-trimethyl-N-((1-methyl-1H-imidazol-2-yl)methyl)-1H-pyrazolo[3′,4′:4,5]thieno[2,3-b]pyridin-3-amine], on mAChR M4, the pEC50 was below 5.00 and the EC50 is above 10000 nM.
With `Cc1cc(C)c2c(n1)sc1c(NC3CCCCCC3)n[nH]c12` [Compound 133, N-cycloheptyl-6,8-dimethyl-1H-pyrazolo[3′,4′:4,5]thieno[2,3-b]pyridin-3-amine], at mAChR M4, the pEC50 is below 5.00 and the 50% effective concentration (EC50) is above 10000 nM.
Turning to `Cc1cc(C)c2c(n1)sc1c(NC3CNC3)nn(C)c12` [Compound 102, N-(azetidin-3-yl)-1,6,8-trimethyl-1H-pyrazolo[3′,4′:4,5]thieno[2,3-b]pyridin-3-amine], on mAChR M4, the “Emax (%)*” value is recorded as 69%, the pEC50 was found to be 5.96 and the EC50 was 1100 nM.
For the compound `Cc1cc(C)c2c(n1)sc1c(NCc3ccccc3)nn(C)c12` [Compound 33, N-benzyl-1,6,8-trimethyl-1H-pyrazolo[3′,4′:4,5]thieno[2,3-b]pyridin-3-amine], on mAChR M4, the “Emax (%)*” value is on record as 75%, the pEC50 is on record as 6.89 and the EC50 is 130 nM.
In the case of `Cc1cc(C)c2c(n1)sc1c(NCc3ccco3)n[nH]c12` [Compound 35, N-(furan-2-ylmethyl)-6,8-dimethyl-1H-pyrazolo[3′,4′:4,5]thieno[2,3-b]pyridin-3-amine], on mAChR M4, the “Emax (%)*” value stood at 80%, the pEC50 came to 5.92 and the EC50 is 1200 nM.
For the compound `Cc1cc(C)c2c(n1)sc1c(NC3CCC(C(F)(F)F)CC3)n[nH]c12` (centres unmarked) [Compound 137, 6,8-dimethyl-N-(4-(trifluoromethyl)cyclohexyl)-1H-pyrazolo[3′,4′:4,5]thieno[2,3-b]pyridin-3-amine], at mAChR M4, the pEC50 is below 5.00 and the EC50 was above 10000 nM.

These data come from patent US9056876B2, “Substituted 1H-pyrazolo[3′,4′,4,5]thieno[2,3-b]pyridin-3-amine analogs as positive allosteric modulators of the muscarinic acetylcholine receptor M4” (VANDERBILT UNIVERSITY, priority 2011, dated 2015).
